Numbers after ± are expanded uncertainties.
Test: refractive index (Na D-line) (dimensionless)
Conditions: 293.1 K; 101.33 kPa; Liquid; Standard Abbe refractometry

Row | Structure (SMILES) | refractive index
1 | O=CN1CCOCC1 [N-formylmorpholine] | 1.484 ± 0.0007
2 | CC1CCCCC1 [methylcyclohexane] | 1.423 ± 0.0007
3 | Cc1ccccc1 [toluene] | 1.4873 ± 0.0007
